# System: allergic rhinitis in adult humans
# Test: Phase Ib randomized, double-blinded, placebo-controlled study of danazol intranasal spray; subject-reported Total Nasal Symptom Score (TNSS)
# Format: in vivo, human
# Design: key to Change in rTNSS, Median / Change in AM rTNSS, Median / Change in iTNSS, Median / Change in AM iTNSS, Median: change in TNSS, sum of four 0–3 symptom scores (0–12)
# Experimental: A Phase Ib randomized, double-blinded, placebo-controlled, parallel group study was performed to evaluate the efficacy of danazol for treating allergic rhinitis in adult humans. Briefly, the study was performed as follows.
# The subjects were male or female humans, 18-65 years of age, with a history of allergic rhinitis that had been receiving therapy (continuous or intermittent) for more than 1 year.
# During a seven-day wash out period (days 1-7), the subjects received no treatment of any type and recorded their symptoms twice a day (in the morning before bathing, consumption of food or beverages or strenuous activities and 12 hours later) using the following scale: • 0=absent (no sign/symptom present) • 1=mild (sign/symptom clearly present, but minimal awareness; easily tolerated) • 2=moderate (definite awareness of sign/symptom that is bothersome but tolerable) • 3=severe (sign/symptom that is hard to tolerate; causes interference with activities of daily living and/or sleeping)
# The subjects were randomized into treatment groups (danazol or placebo) after the wash out period (on day 8).
# Treatment was begun on day 8 and continued through day 21 (14 days total). During treatment, the subjects again recorded their symptoms twice daily (as described above and before administration of the test medications in the morning) using the above scale. The subjects administered 0.3 ml of one of the test medications, 0.15 ml per nostril, once daily in the morning, immediately after recording their symptoms. The first administration of test medications was supervised by test site personnel. The test medications were 0.1% (w/v) danazol intranasal spray and placebo spray (nonmedicinal components in identical intranasal spray format). Efficacy of the test medications was assessed as follows:
# The measures of effectiveness in this study included the subject-reported Total Nasal Symptom Score (TNSS). The TNSS is defined as the sum of the subject-reported symptom scores for the four nasal symptoms: rhinorrhea (runny nose), nasal congestion, nasal itching, and sneezing. Each score is assessed on a severity scale ranging from 0 to 3 as defined above.
# The subjects were asked to assess both reflective TNSS (i.e., an evaluation of symptom severity over the past 12 hours prior to the recording of the score) and instantaneous TNSS (i.e., an evaluation of the symptom severity over the last 10 minutes).
# The reflective and instantaneous TNSS are defined as the sum of the subject-reported symptom scores for the four nasal symptoms. Each subject recorded the symptom scores in the subject's diary. For each score, information recorded in the diary included the following: • rhinorrhea (runny nose) • nasal congestion • nasal itching • sneezing The severity scale for each symptom evaluation is given above.
# Mean reflective (r) and instantaneous (i) subject-reported total nasal symptom scores (TNSS) were calculated for each subject. The mean TNSS is the average of all AM and PM daily scores (each score is ranked on a scale from 0-12) during the baseline (baseline efficacy value) and the treatment period (double-blind efficacy value).
# The change in efficacy was calculated as the change in the double-blind value—baseline value as follows: • Change in rTNSS: mean double-blind rTNSS—mean baseline rTNSS • Change in iTNSS: mean double-blind iTNSS—mean baseline iTNSS Student's t-test: mean (SD) difference between treatment groups for the following: • Mean change in (rTNSS/iTNSS) • Mean change in AM (rTNSS/iTNSS) • Mean change in PM (rTNSS/iTNSS) • Mean change in individual symptom scores for each of the four nasal symptoms.
# The largest improvements were with itchy nose symptoms (Table 8 and FIG. 6).
# [1] = Wilcoxon rank-sum analysis, median, n=10
# [2] = instantaneous symptom score 0-3, double-blind minus baseline, mean (SD), n=10
# [3] = reflective symptom score 0-3, double-blind minus baseline, mean (SD), n=10
smiles,measurement,setting,value
"C#C[C@]1(O)CC[C@H]2[C@@H]3CCC4=Cc5oncc5C[C@]4(C)[C@H]3CC[C@@]21C [Danazol, 17α-pregna-2,4-dien-20-yno[2,3-d]-isoxazol-17β-ol]","Change in instantaneous symptom iItchy nose, Median",[1],−1.0
same,"Change in instantaneous symptom iRunny nose, Median",[1],0.0
same,"Change in instantaneous symptom iSneezing, Median",[1],−0.5
same,"Change in instantaneous symptom iStuffy nose, Median",[1],−0.5
same,"Change in reflective symptom rItchy nose, Median",[1],−1.0
same,"Change in reflective symptom rRunny nose, Median",[1],−0.25
same,"Change in reflective symptom rSneezing, Median",[1],−1.0
same,"Change in reflective symptom rStuffy nose, Median",[1],0.0
same,"efficacy measures showing a larger improvement with danazol than with placebo, instantaneous","iTNSS measures, all assessments but sneezing",6/7
same,Mean change in iTNSS,"instantaneous TNSS, all AM and PM scores, double-blind minus baseline, 0.1% (w/v) intranasal spray once daily, 14 days, mean (SD), n=10",−1.94 (2.68)
same,Mean change in PM iTNSS,"instantaneous TNSS, evening assessment, double-blind minus baseline, mean (SD), n=10",−1.42 (2.64)
same,"Change in PM iTNSS, Median","instantaneous TNSS, evening, Wilcoxon rank-sum analysis, median, n=10",−1.5
same,Mean change in AM iTNSS,"instantaneous TNSS, morning assessment, double-blind minus baseline, mean (SD), n=10",−1.59 (2.36)
same,"Change in AM iTNSS, Median","instantaneous TNSS, morning, Wilcoxon rank-sum analysis, median, n=10",−1.5
same,"Change in iTNSS, Median","instantaneous TNSS, Wilcoxon rank-sum analysis, median, n=10",−1.75
same,Mean change in instantaneous symptom iItchy nose,[2],−0.70 (0.92)
same,Mean change in instantaneous symptom iRunny nose,[2],−0.30 (1.07)
same,Mean change in instantaneous symptom iSneezing,[2],−0.50 (0.53)
same,Mean change in instantaneous symptom iStuffy nose,[2],−0.44 (0.56)
same,decrease in instantaneous symptom severity (iTNSS),"mean, Student's t-test analysis, vs 1.14 point decrease with placebo",1.94 point
same,decrease in reflective symptom severity (rTNSS),"mean, Student's t-test analysis, vs 1.16 point decrease with placebo",2.11 point
same,decrease in instantaneous symptom severity (iTNSS),"median, Wilcoxon rank-sum analysis, vs 0.75 point decrease with placebo",1.75 point
same,decrease in reflective symptom severity during the PM assessment (rTNSS),"median, Wilcoxon rank-sum analysis, vs 1.25 point decrease with placebo",3.25 point
same,"efficacy measures showing a larger improvement with danazol than placebo, reflective","rTNSS measures, all assessments but runny nose symptom",6/7
same,Mean change in rTNSS,"reflective TNSS, all AM and PM scores, double-blind minus baseline, 0.1% (w/v) intranasal spray 0.3 ml once daily, 14 days, mean (SD), n=10",−2.11 (2.66)
same,Mean change in PM rTNSS,"reflective TNSS, evening assessment, double-blind minus baseline, 0.1% (w/v) intranasal spray once daily, 14 days, mean (SD), n=10",−2.39 (2.68)
same,Mean change in PM rTNSS,"reflective TNSS, evening assessment, double-blind minus baseline, 0.1% (w/v) intranasal spray once daily, 14 days, mean (SD), n=10, listed as danazol",−2.39
same,"Change in PM rTNSS, Median","reflective TNSS, evening, Wilcoxon rank-sum analysis, median, n=10",−3.25
same,Mean change in AM rTNSS,"reflective TNSS, morning assessment, double-blind minus baseline, 0.1% (w/v) intranasal spray once daily, 14 days, mean (SD), n=10",−1.62 (2.40)
same,"Change in AM rTNSS, Median","reflective TNSS, morning, Wilcoxon rank-sum analysis, median, n=10",−2.0
same,"Change in rTNSS, Median","reflective TNSS, Wilcoxon rank-sum analysis, median, n=10",−2.25
same,Mean change in reflective symptom rItchy nose,[3],−0.85 (1.02)
same,Mean change in reflective symptom rRunny nose,[3],−0.30 (0.66)
same,Mean change in reflective symptom rSneezing,[3],−0.47 (0.71)
same,Mean change in reflective symptom rStuffy nose,[3],−0.48 (0.69)
